Reference: PMC6270001, “Synthesis and Antiviral Activity of N-Phenylbenzamide Derivatives, a Novel Class of Enterovirus 71 Inhibitors” (Molecules, 2013)

What was measured:
[1] = test system: Vero cells; assay: Cytotoxicity determination in Vero cells monitored by cytopathic effect (CPE); format: cell-based; details: 48 h, Reed & Muench, concentration that inhibits 50% cellular growth, average ± SD, n=3
Method: Vero cells were purchased from the American Type Culture Collection and cultured in Minimum Essential Medium (MEM) supplemented with 10% Fetal Bovine Serum (FBS) and antibiotics (100 U/mL penicillin G, 100 μg/mL streptomycin). Enterovirus 71 (EV 71) strain SZ-98 was kindly provided by Dr. Qi Jin, Institute of Pathogen Biology, Chinese Academy of Medical Science and Peking Union Medical School. […] Enterovirus 71 (EV 71) strain JS-52-3 was kindly provided by Dr. Xiang-zhong Ye, Beijing Wantai Biological Pharmacy Enterprise Co., Ltd. All Enterovirus 71 strains were propagated in Vero cells.
(§1) All compounds were dissolved in DMSO at 20 mg/mL as a stock solution and further diluted in culture medium prior to use. The initial concentration in all cytotoxicity assay was 200 µg/mL, and inhibition assay for anti-EV71 experiments was from maximum non-toxic concentration, and proceeded serially 3-fold dilution with culture medium. All cytotoxicity and activity assay for each compound was repeated for three times, and the data was indicated as average ± SD.
The cytotoxicity of compounds in the presence of Vero cells was monitored by cytopathic effect (CPE). Vero cells (2.5 × 10^4/well) were plated into a 96-well plate. A total of 24 h later, the monolayer cells were incubated in the presence of various concentrations of test compounds. […] The median toxic concentration (TC50) was calculated by Reed & Muench analyses.

[2] = test system: EV 71 strain SZ-98 (genotype C4); assay: Anti EV 71 activity assay (CPE, Reed & Muench) in Vero cells, strain SZ-98; format: cell-based, Enterovirus 71; details: for IC50: EV 71 strain SZ-98, Vero cells, 100 TCID50, CPE, average ± SD, n=3; for SI SZ-98: selectivity index TC50/IC50, strain SZ-98, "-" stands for no antiviral selectivity
Method: (§2) The EV 71 was divided into three genotypes A, B and C based on nucleotide sequence comparisons, and genotypes B and C were subdivided into B1-B5 and C1-C5 [6, 10]. Genotype C is the most common genotype found in mainland China, especially the C4 subgenotype. Consequently, the intermediate compounds 1a, 1c and 1e, and the final products 2a–c, 3a–g, and 5a–f were evaluated for their anti-EV 71 activity in Vero cells against genotypes C4 (strains SZ-98 and JS-52-3), C2 (strain H) and A (strain BrCr). […] The IC50 values were calculated by the Reed and Muench method, and the cytotoxicity was monitored by the CPE method.
(§3) Vero cells were purchased from the American Type Culture Collection and cultured in Minimum Essential Medium (MEM) supplemented with 10% Fetal Bovine Serum (FBS) and antibiotics (100 U/mL penicillin G, 100 μg/mL streptomycin). Enterovirus 71 (EV 71) strain SZ-98 was kindly provided by Dr. Qi Jin, Institute of Pathogen Biology, Chinese Academy of Medical Science and Peking Union Medical School. Enterovirus 71 (EV 71) strain BrCr (VR-1775) was purchased from the American Type Culture Collection. Enterovirus 71 (EV 71) strain JS-52-3 was kindly provided by Dr. Xiang-zhong Ye, Beijing Wantai Biological Pharmacy Enterprise Co., Ltd. All Enterovirus 71 strains were propagated in Vero cells.
as §1
(§4) Confluent Vero cells grown in 96-well microplates were infected respectively with 100 median tissue culture infective dose (TCID50) EV 71. After 1 h adsorption at 37 °C, the monolayers were washed by PBS and incubated at 37 °C in the maintenance medium with or without different concentrations of test compounds.

[3] = test system: EV 71 strain JS-52-3 (genotype C4); assay: Anti EV 71 activity assay (CPE, Reed & Muench) in Vero cells, strain JS-52-3; format: cell-based, Enterovirus 71; details: for IC50: Enterovirus A, Vero, EV 71 strain JS-52-3, Vero cells, 100 TCID50, CPE, average ± SD, n=3; for SI JS-52-3: selectivity index TC50/IC50, strain JS-52-3, "-" stands for no antiviral selectivity
Method: as §2, §3, §1, §4

[4] = test system: EV 71 strain H (genotype C2); assay: Anti EV 71 activity assay (CPE, Reed & Muench) in Vero cells, strain H; format: cell-based, Enterovirus 71; details: for IC50: EV 71 strain H (C2 genotype), Vero cells, 100 TCID50, CPE, average ± SD, n=3; for SI H: selectivity index TC50/IC50, strain H, "-" stands for no antiviral selectivity
Method: as §2, §3, §1, §4

[5] = test system: EV 71 strain BrCr (genotype A); assay: Anti EV 71 activity assay (CPE, Reed & Muench) in Vero cells, strain BrCr; format: cell-based, Enterovirus 71; details: for IC50: Enterovirus A, Vero, EV 71 strain BrCr, Vero cells, 100 TCID50, CPE, average ± SD, n=3; for SI BrCr: selectivity index TC50/IC50, strain BrCr, "-" stands for no antiviral selectivity
Method: as §2, §3, §1, §4

Row | Structure (SMILES) | TC50 [1] | IC50 ([2]; Enterovirus A, Vero) | SI SZ-98 [2] | IC50 [3] | SI JS-52-3 [3] | IC50 ([4]; Enterovirus A, Vero) | SI H [4] | IC50 [5] | SI BrCr [5] | melting point | IC50 [2] | IC50 [4]
1 | CCC(=O)Oc1cc(C(=O)N(C)c2ccc(Cl)cc2)ccc1OC [Compound 5d, N-(4-Chlorophenyl)-N-methyl-4-methoxy-3-propionyloxybenzamide] | 280 ± 21 µM | 190 ± 12 µM | 1.4 | 44 ± 3.7 µM | 6.2 | 65 µM | 4.3 | 53 ± 2.4 µM | 5.2 | 139 to 141 °C | – | –
2 | COc1ccc(C(=O)Nc2ccccc2)cc1N [Compound 1a] | >820 µM | 350 ± 24 µM | – | 160 ± 7.9 µM | 5.2 | 190 ± 14 µM | 4.3 | 160 ± 12 µM | 5.2 | – | – | –
3 | CNc1cc(C(=O)Nc2cc(OC)c(OC)c(OC)c2)ccc1OC [Compound 3c, 4-Methoxy-3-methylamino-N-(3,4,5-trimethoxyphenyl)benzamide] | 280 ± 5.9 µM | 64 µM | 4.3 | 37 ± 1.9 µM | 7.5 | 37 ± 1.2 µM | 7.5 | 44 ± 1 µM | 6.2 | 147 to 148 °C | – | –
4 | CNc1cc(C(=O)Nc2ccccc2)ccc1OC [Compound 3a, 4-Methoxy-3-methylamino-N-phenylbenzamide] | 780 ± 0.0 µM | > 260 µM | – | 260 µM | 3.0 | 260 µM | 3.0 | 180 ± 14 µM | 4.3 | 170 to 172 °C | – | –
5 | COc1ccc(C(=O)Nc2cc(OC)c(OC)c(OC)c2)cc1N(C)C [Compound 3d, 3-Dimethylamino-4-methoxy-N-(3,4,5-trimethoxyphenyl)benzamide] | >560 µM | 320 ± 32 µM | >1.7 | > 560 µM | – | 190 µM | >3.0 | 190 µM | >3.0 | 120 to 122 °C | – | –
6 | CCC(=O)Nc1cc(C(=O)Nc2ccccc2)ccc1OC [Compound 5a] | >670 µM | > 75 µM | – | 58 ± 4.9 µM | >12 | 96 ± 10 µM | >7.0 | 45 ± 10 µM | – | – | – | –
7 | COc1ccc(C(=O)Nc2ccccc2)cc1NC(=O)C(C)F (stereo not shown) [Compound 2a] | – | > 630 µM | – | 160 ± 5.7 µM | >3.9 | 18 ± 1.2 µM | >35 | > 630 µM | – | – | – | –
8 | CCCNc1cc(C(=O)Nc2ccc(Cl)cc2)ccc1OC [Compound 3f, N-(4-Chlorophenyl)-4-methoxy-3-propylaminobenzamide] | 120 µM | > 70 µM | – | > 70 µM | – | > 70 µM | – | > 70 µM | – | 168 to 171 °C | – | –
9 | COc1ccc(C(=O)Nc2ccc(Cl)cc2)cc1OC(C)=O [Compound 5e, N-(4-Chlorophenyl)-4-methoxy-3-acetoxybenzamide] | 470 ± 22 µM | ~15 µM | 37 | 32 ± 3.6 µM | 14 | 22 ± 4.7 µM | 21 | 32 ± 3.9 µM | 15 | 177 to 179 °C | 13 ± 2.4 µM | –
10 | COc1ccc(C(=O)Nc2ccccc2)cc1OC(C)=O [Compound 5f, 4-Methoxy-N-phenyl-3-acetoxybenzamide] | 360 ± 39 µM | 90 ± 11 µM | 4.0 | 98 ± 4.7 µM | 3.7 | 47 ± 6.1 µM | 7.6 | 95 ± 9 µM | 3.8 | 153 to 155 °C | – | –
11 | COc1ccc(C(=O)Nc2ccc(Cl)cc2)cc1N(C)C [Compound 3b, N-(4-Chlorophenyl)-3-dimethylamino-4-methoxybenzamide] | 510 ± 38 µM | 73 ± 8.6 µM | 7.0 | 42 ± 3.1 µM | 12 | 31 ± 4.3 µM | 16 | 50 ± 3.8 µM | 10 | 160 to 162 °C | – | –
12 | CCCNc1cc(C(=O)Nc2ccccc2)ccc1OC [Compound 3e, 4-Methoxy-N-phenyl-3-(propylamino)benzamide] | 410 ± 22 µM | > 78 µM | – | 34 ± 4.6 µM | 12 | ~15 µM | 20 | 45 µM | 9.0 | 121 to 123 °C | – | 20 ± 1.2 µM
13 | CCC(=O)Nc1cc(C(=O)Nc2ccc(Cl)cc2)ccc1OC [Compound 5b, N-(4-Chlorophenyl)-4-methoxy-3-propionamidobenzamide] | >600 µM | 38 ± 2.9 µM | > 16 | 39 ± 1.9 µM | >16 | 22 ± 2.9 µM | >27 | > 67 µM | – | 130 to 132 °C | – | –
14 | COc1cc(C(=O)Nc2ccccc2)ccc1NC(=O)C(C)F (stereo not shown) [Compound 2c, 4-(2-Fluoropropanamido)-3-methoxy-N-phenylbenzamide] | >630 µM | 110 ± 12 µM | >5.8 | 34 ± 2.8 µM | – | 41 ± 2.9 µM | >16 | 90 ± 9.5 µM | >7.0 | 142 to 143 °C | – | –
